Numbered stars: 1 amine (or outer) side, 2 acyl side, 3 side chain; on linkers, the order of the positions; unused ones are H or OH. Square brackets hold non-standard residues; d marks the D form. Peptide text beside a SMILES is read from it. * marks the point of attachment. Phe(4-CH2SO3H) = N[C@@H](Cc1ccc(CS(=O)(=O)O)cc1)C(=O)O; C18 diacid = O=C(O)CCCCCCCCCCCCCCCCC(=O)*; γGlu = O=C(O)[C@H](CCC(=O)[*:2])N[*:1]; βAsp = O=C(O)[C@H](CC(=O)[*:2])N[*:1]; NMeF = CN[C@@H](Cc1ccccc1)C(=O)O; dNMeD = CN[C@H](CC(=O)O)C(=O)O; Nle = CCCC[C@H](N)C(=O)O; AEEA = NCCOCCOCC(=O)O
How the values were obtained:
[1] = Chemical stability of the compound in sodium phosphate buffer assessed as loss of purity 0.5 mM at pH 7.4 at 37 degC after 1 week by UHLPC-UV analysis; assay type: physicochemical; conditions: read-out: Drug degradation
[2] = Chemical stability of the compound in sodium phosphate buffer assessed as purity 0.5 mM at pH 2.2 at 37 degC after 1 week by UHLPC-UV analysis; assay type: physicochemical; conditions: read-out: Stability
[3] = biological target: T1, Cholecystokinin receptor type A (Homo sapiens, UniProt P32238); assay: Displacement of [125I]-CCK-8 from human CCK1R expressed in human 1321N1 cell membranes after 2 hrs by SPA assay
T1 sequence (P32238 whole entry): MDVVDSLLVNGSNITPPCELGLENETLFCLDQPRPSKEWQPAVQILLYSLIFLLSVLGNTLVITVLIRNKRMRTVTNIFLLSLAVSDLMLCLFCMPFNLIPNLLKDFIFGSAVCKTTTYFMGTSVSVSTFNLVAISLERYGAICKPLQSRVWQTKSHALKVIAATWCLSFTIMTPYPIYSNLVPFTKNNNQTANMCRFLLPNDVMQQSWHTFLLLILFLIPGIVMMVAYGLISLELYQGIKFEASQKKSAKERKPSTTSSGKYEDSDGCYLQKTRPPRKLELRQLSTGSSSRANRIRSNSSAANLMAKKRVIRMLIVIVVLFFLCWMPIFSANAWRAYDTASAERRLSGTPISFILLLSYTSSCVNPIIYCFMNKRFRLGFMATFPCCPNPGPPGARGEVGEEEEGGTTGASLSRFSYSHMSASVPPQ

[4] = biological target: T1, Cholecystokinin receptor type A; assay: Agonist activity at human CCK1R expressed in human 1321N1 cells assessed as IP1 accumulation after 1 hr by HTRF assay; assay type: functional, cell-based
[5] = Terminal half life in Ellegaard Gottingen minipig at 5 nmol/kg, iv by LC-MS/MS analysis; assay type: ADME, organism-based, Sus scrofa; conditions: pig, in vivo, read-out: beta t1/2 (converted)
[6] = tested on: Sus scrofa; assay: Anti-obesity activity in lean Landrace Yorkshire Duroc pig assessed as food intake at 30 nmol/kg, sc measured up to 24 hrs post dose (reference value: 1.8 to 2.1 kg); assay type: functional
[7] = tested on: Sus scrofa; assay: Anti-obesity activity in lean Landrace Yorkshire Duroc pig assessed as food intake at 30 nmol/kg, sc measured at 24 to 48 hrs post dose (reference value: 1.8 to 2.1 kg); assay type: functional
[8] = tested on: Sus scrofa; assay: Anti-obesity activity in lean Landrace Yorkshire Duroc pig assessed as food intake at 30 nmol/kg, sc measured at 48 to 72 hrs post dose (reference value: 1.8 to 2.1 kg); assay type: functional
[9] = tested on: Sus scrofa; assay: Anti-obesity activity in lean Landrace Yorkshire Duroc pig assessed as food intake at 30 nmol/kg, sc measured at 72 to 96 hrs post dose (reference value: 1.8 to 2.1 kg); assay type: functional
[10] = Plasma concentration in lean Landrace Yorkshire Duroc pig at 30 nmol/kg, sc measured after 96 hrs post dose; assay type: ADME, organism-based, Sus scrofa
[11] = Toxicity in lean Landrace Yorkshire Duroc pig at 30 nmol/kg, sc measured up to 96 hrs post dose; assay type: organism-based, Sus scrofa; conditions: in vivo
[12] = Drug level in sodium phosphate buffer treated with 1 mM (2R,5S,8S,14S,17S,20S,43S)-8-((1H-indol-3-yl)methyl)-2-(((S)-1-amino-1-oxo-3-phenylpropan-2-yl)(methyl)carbamoyl)-5,14-dibutyl-20-(carboxymethyl)-3-methyl-4,7,10,13,16,19,22,31,40,45-decaoxo-17-(4-(sulfomethyl)benzyl)-24,27,33,36-tetraoxa-3,6,9,12,15,18,21,30,39,44-decaazahenhexacontane-1,43,61-tricarboxylic acid assessed as compound formation at pH 7.4 at 37 degC after 1 to 2 weeks by UHLPC-UV analysis; assay type: physicochemical
[13] = Drug metabolism in Ellegaard Gottingen minipig plasma assessed as C18d-gammaGlu-(OEG)2-Asp-Phe(4sm)-OH peptide metabolite formation at 5 nmol/kg, iv administered as single dose by LC-MS/MS analysis; assay type: ADME, organism-based, Sus scrofa; conditions: pig, in vivo
[14] = Drug metabolism in Ellegaard Gottingen minipig plasma assessed as C18d-gammaGlu-(OEG)2-Asp-Phe(4sm)-Nle-Gly-OH peptide metabolite formation at 5 nmol/kg, iv administered as single dose by LC-MS/MS analysis; assay type: ADME, organism-based, Sus scrofa; conditions: pig, in vivo
[15] = Drug metabolism in Ellegaard Gottingen minipig plasma assessed as C18d-gammaGlu-(OEG)2-Asp-Phe(4sm)-Nle-Gly-Trp-Nle-DMeAspOH peptide metabolite formation at 5 nmol/kg, iv administered as single dose by LC-MS/MS analysis; assay type: ADME, organism-based, Sus scrofa; conditions: pig, in vivo
[16] = biological target: albumin (Homo sapiens, UniProt P02768); assay: Binding affinity to human serum albumin at 500 nM after 2 hrs by LC-MS analysis; assay type: ADME; conditions: read-out: PB (converted)
[17] = Protein binding in Ellegaard Gottingen minipig plasma at 500 nM after 2 hrs by LC-MS analysis; assay type: ADME, cell-free, Sus scrofa; conditions: pig, read-out: PPB (converted)
[18] = Chemical stability of the compound in sodium phosphate buffer assessed as loss of purity 1 mM at pH 7.4 at 37 degC after 1 week by UHLPC-UV analysis; assay type: physicochemical; conditions: read-out: Drug degradation
[19] = Chemical stability of the compound in sodium phosphate buffer assessed as loss of purity 1 mM at pH 7.4 at 37 degC after 2 weeks by UHLPC-UV analysis; assay type: physicochemical; conditions: read-out: Drug degradation
[20] = Drug metabolism in sodium phosphate buffer assessed as (2R,5S,8S,14S,17S,21S,44S)-8-((1H-indol-3-yl)methyl)-2-(((S)-1-amino-1-oxo-3-phenylpropan-2-yl)(methyl)carbamoyl)-5,14-dibutyl-3-methyl-4,7,10,13,16,19,23,32,41,46-decaoxo-17-(4-(sulfomethyl)benzyl)-25,28,34,37-tetraoxa-3,6,9,12,15,18,22,31,40,45-decaazadohexacontane-1,21,44,62-tetracarboxylic acid formation at 1 mM at pH 7.4 at 37 degC after 1 to 2 weeks by UHLPC-UV analysis

Sequence of albumin (P02768 whole entry): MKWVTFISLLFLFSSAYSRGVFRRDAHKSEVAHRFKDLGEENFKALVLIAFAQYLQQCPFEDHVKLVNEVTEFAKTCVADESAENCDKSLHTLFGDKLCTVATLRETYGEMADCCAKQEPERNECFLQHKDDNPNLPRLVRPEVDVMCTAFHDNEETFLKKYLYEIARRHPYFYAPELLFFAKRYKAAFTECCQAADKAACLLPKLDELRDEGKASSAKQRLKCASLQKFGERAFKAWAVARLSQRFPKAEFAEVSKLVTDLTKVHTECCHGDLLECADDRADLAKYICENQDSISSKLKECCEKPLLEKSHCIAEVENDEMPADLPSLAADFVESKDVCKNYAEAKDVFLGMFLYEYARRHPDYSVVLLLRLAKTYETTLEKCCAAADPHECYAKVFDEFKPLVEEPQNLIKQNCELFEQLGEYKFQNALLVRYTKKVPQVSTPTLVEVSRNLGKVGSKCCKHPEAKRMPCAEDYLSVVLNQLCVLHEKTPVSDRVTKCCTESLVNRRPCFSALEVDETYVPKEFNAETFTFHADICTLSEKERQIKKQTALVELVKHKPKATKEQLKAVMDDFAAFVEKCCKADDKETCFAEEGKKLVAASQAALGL

degraded at 168 h, 500 µM [1] | remaining at 168 h, 500 µM [2] | IC50 [3] | EC50 [4] | half-life [5] | concentration at 96 h [10] | Drug uptake [12] | Drug metabolism [13] | Drug metabolism [14] | Drug metabolism [15] | fraction unbound at 2 h, 0.5 µM [16] | fraction unbound at 2 h, 0.5 µM [17] | degraded at 168 h, 1000 µM [18] | degraded at 336 h, 1000 µM [19] | SMILES | Activity [6] | Activity [7] | Activity [8] | Activity [9] | Activity [11] | Drug metabolism [20]
0.8% | 22% | – | – | – | – | – | – | – | – | – | – | – | – | CCCC[C@H](NC(=O)[C@H](Cc1ccc(OS(=O)(=O)O)cc1)NC(=O)[C@H](CC(=O)O)NC(=O)COCCOCCNC(=O)COCCOCCNC(=O)CC[C@H](NC(=O)CCCCCCCCCCCCCCCCC(=O)O)C(=O)O)C(=O)NCC(=O)N[C@@H](Cc1c[nH]c2ccccc12)C(=O)N[C@@H](CCCC)C(=O)N[C@@H](CC(=O)O)C(=O)N[C@@H](Cc1ccccc1)C(N)=O | – | – | – | – | – | –
– | – | 0.0794 nM | 0.316 nM | 106 h | 88.7 nM | Active | – | – | – | – | – | – | – | CCCC[C@H](NC(=O)[C@H](Cc1ccc(CS(=O)(=O)O)cc1)NC(=O)C[C@H](NC(=O)COCCOCCNC(=O)COCCOCCNC(=O)CC[C@H](NC(=O)CCCCCCCCCCCCCCCCC(=O)O)C(=O)O)C(=O)O)C(=O)NCC(=O)N[C@@H](Cc1c[nH]c2ccccc12)C(=O)N[C@@H](CCCC)C(=O)N(C)[C@H](CC(=O)O)C(=O)N(C)[C@@H](Cc1ccccc1)C(N)=O ({C18 diacid-γGlu-AEEA-AEEA-βAsp}-[Phe(4-CH2SO3H)][Nle]GW[Nle][dNMeD][NMeF]-NH2) | 1.1 kg | 1.5 kg | 1.8 kg | 1.7 kg | Non-Toxic | –
– | – | 0.0525 nM | 0.251 nM | – | 84.9 nM | – | Metabolite_Detected | Metabolite_Detected | Metabolite_Detected | 0.003 | 0.003 | 1.3% | 2.2% | CCCC[C@H](NC(=O)[C@H](Cc1ccc(CS(=O)(=O)O)cc1)NC(=O)[C@H](CC(=O)O)NC(=O)COCCOCCNC(=O)COCCOCCNC(=O)CC[C@H](NC(=O)CCCCCCCCCCCCCCCCC(=O)O)C(=O)O)C(=O)NCC(=O)N[C@@H](Cc1c[nH]c2ccccc12)C(=O)N[C@@H](CCCC)C(=O)N(C)[C@H](CC(=O)O)C(=O)N(C)[C@@H](Cc1ccccc1)C(N)=O ({C18 diacid-γGlu-AEEA-AEEA}-D[Phe(4-CH2SO3H)][Nle]GW[Nle][dNMeD][NMeF]-NH2) | 1 kg | 1.1 kg | 1.5 kg | 1.9 kg | Non-Toxic | Metabolite detected

From ChEMBL document CHEMBL4368907 (J Med Chem, 2019)
